tested on: Rat Paw Edema; assay: Rat paw edema assay (carrageenan); type: in vivo, rat (Male Sprague-Dawley); conditions: po, p.o. 1 h before subplantar carrageenan (500 μg per paw), paw volume at 3 h, read-out: Rat Paw Edema ED50, dose of prodrug required to reduce edema formation by 50% as compared to vehicle control
Description: Male Sprague-Dawley rats (150-200 g) are fasted overnight and are given, p0, either vehicle (1% methocel or 5% Tween 80) or a test compound. One hr later, a line is drawn using a permanent marker at the level above the ankle in one hind paw to define the area of the paw to be monitored. The paw volume (V0) is measured using a plethysmometer (Ugo-Basile, Italy) based on the principle of water displacement. The animals are then injected subplantarly with 50 μl of 1% carrageenan solution in saline (FMC Corp, Me.) into the paw using an insulin syringe with a 25-gauge needle (i.e. 500 μg carrageenan per paw). Three hr later, the paw volume (V3) is measured and the increases in paw volume (V3 - VO) are calculated. The animals are sacrificed by CO2 asphyxiation and the absence or presence of stomach lesions scored. Data is compared with the vehicle-control values and percent inhibition calculated. All treatment groups are coded to eliminate observer bias.
Compounds of the present invention are prodrugs of inhibitors of COX-2 and are thereby useful in the treatment of COX-2 mediated diseases as enumerated above. The extent of conversion of these compounds to the active COX-2 inhibitors may be seen in the representative results shown in Table III along with their antiinflammatory activity. The plasma levels indicated are the maximum rat plasma concentrations of the active COX-2 inhibitor observed when the rat was treated with a 20 mg/kg oral dose of the indicated prodrug. The ED50 values in the rat paw edema assay represent the dose of prodrug required to reduce edema formation by 50% as compared to the vehicle control.

Going from CC(C)(O)/C(=C(\CO)c1cccc(F)c1)c1ccc(S(C)(=O)=O)cc1 [Example 1, 2-(3-Fluorophenyl)-4-methyl-3-(4-(methylsulfonyl)-phenyl)-2-(Z)-penten-1,4-diol] to COC(=O)/C(=C(/c1ccc(S(C)(=O)=O)cc1)C(C)(C)OC)c1cccc(F)c1 [Example 6, Methyl 2-(3-fluorophenyl)-4-methoxy-4-methyl-3-(4-(methylsulfonyl)phenyl)-2-(Z)-pentenoate], the ED50 falls from 10 mg/kg to 2.1 mg/kg (4.8-fold).

With COC(C)(C)/C(=C(\C(=O)N(C)C)c1cccc(F)c1)c1ccc(S(C)(=O)=O)cc1 [Example 4, N,N-Dimethyl-2-(3-fluorophenyl)-4-methoxy-4-methyl-3-(4-(methylsulfonyl)phenyl)-2-(Z)-pentenamide] the ED50 was 1.6 mg/kg.

From patent publication US5925631A, “Alkylated styrenes as prodrugs to COX-2 inhibitors” (Merck & Co., Inc., priority 1998, dated 1999)
